Reference: US20250108088A1, “REGENERATIVE PEPTIDES AND METHODS FOR USE THEREOF” (priority 2023, published 2025)
Entries after “also recorded” stand apart in the source; their conditions may differ.

How the values were obtained:
[1] = system: Normal human dermal fibroblasts (HNDF); assay: Myofibroblast transition assay (MFT), aSMA immunofluorescence; format: cell-based; settings: for Myofibroblast transition (MFT), aSMA/cell, % change relative to control / MFT, Representative value from experiments (% change relative to control): N = 3; for Myofibroblast transition (MFT), aSMA/cell, % change relative to control: TGF-Beta induced HNDF, control of no peptide; for MFT, Representative value from experiments (% change relative to control): most effective significant concentration of 10, 100, 1000 ng/ml
From the text: The myofibroblast transition (MFT) assay determines the effect of the peptide on inhibiting the transition of fibroblasts to myofibroblasts. The extracellular matrix produced by myofibroblasts may be produced in excess and may not be remodeled during tissue healing, leaving behind the fibrous connective tissue that forms a scar. Thus, the ability to regulate the degree of MFT may enable control of scarring. To determine if the peptides provided herein affect MFT, the following assay was performed.
Normal human dermal fibroblasts (HNDF) were cultured in high glucose Dulbecco's modified eagle medium (DMEM) supplemented with 10% fetal bovine serum (FBS) and 5 ml of 10,000 units of penicillin/streptomycin. Cells were cultured on 10 cm plates with media changes every 2 days. Cells were passaged in 0.25% Trypsin/EDTA after achieving 80% confluency.
To induce myofibroblast transition (MFT), normal human dermal fibroblasts (HNDFs) were split from 1-10 cm plates to 5-96 well plates. Cells were then allowed to grow the next day. The following day, cells were serum starved (1% FBS in DMEM) for 4 hours prior to adding 20 ng/ml of TGF-Beta to all wells of the plate. 1000 μM of Vactosertib (TEW-7197/EW-7197) was added to serve as a positive control and different concentrations of peptides were added to serve as the test articles. The cells were then exposed to the compounds for 5 more days before fixation.
The cells were fixed in paraformaldehyde (PFA) for 10-15 minutes, then washed 2× in PBS. Cells were blocked in 4% BSA for 30 minutes at 23° C. Cells were stained with the primary alpha-smooth muscle actin (aSMA) antibody (1:100) for 1 hour at 23° C. or left out at 4° C. overnight. Cells were rinsed 2× with BSA and then the secondary antibody mix was added: Alexa 488 (1:500) and DAPI (1:1000) for 30 min at 23° C. or 1 hr at 4° C. The plates were covered during staining, then rinsed 2× in BSA and stored in PBS.
Plates were imaged using the Celigo Imaging Cytometer by Nexcelcom. The ratio of fluorescent expression of alpha-smooth muscle actin (aSMA) and DAPI were quantified to determine the amount of aSMA/cell.
The change (normalized to the control) in MFT for each concentration is shown along with the p value for all experiments relative to the control of no peptide.

[2] = system: interleukin-8 (IL-8) production in human fibroblasts; assay: Fibroblast inflammation assay (LPS-induced IL-8, ELISA); format: cell-based; settings: N = 3, 5 μg/mL LPS, 24 hours
Method: Inflammation in fibroblasts leads to the production of the chemokine interleukin-8 (IL-8), which stimulates fibroblast to myofibroblast transition (MFT) thereby enhancing scar formation. To determine if the peptides of the instant disclosure affect fibroblast response to inflammation and fibroblast IL-8 production, the following assays were performed.
Human fibroblasts were grown as described above. HNDFs were plated in 96 well plates at a concentration of 1×10^4 cells/well and allowed to incubate overnight. The next day cells were dosed with 5 μg/mL of LPS with and without the peptides. The negative control contained only media and vehicle, while the positive control was dosed with lipopolysaccharides (LPS) and dexamethasone (50 μg/ml). After 24 hours, the media was removed to measure IL6 and IL8 cytokine levels using ELISA. A standard curve was plotted in excel. All data were blank subtracted and then fit onto the curve to calculate cytokine concentrations.

[3] = system: Staphylococcus aureus, Streptococcus pneumoniae, Klebsiella pneumoniae, Pseudomonas aeruginosa, Acinetobacter baumannii; assay: Antimicrobial assays, growth of bacterial strains; format: cell-based
Method: Infection is another perturbation that causes fibrosis and may delay or inhibit wound healing. To determine if the peptides of the instant disclosure affect the growth of bacteria, and thus may be appropriate as antimicrobial peptides to be used in anti-fibrotic treatments, growth of the following bacterial strains was tested with the exemplary peptides: Staphylococcus aureus: USA300, ST80, JE2, and MRSA col; Streptococcus pneumoniae: DCC1335 and D39; Klebsiella pneumoniae; Pseudomonas aeruginosa; and Acinetobacter baumannii. […] Thus, in some embodiments, the peptides of the instant disclosure may bacterial growth, by a least 20%, at least 30%, at least 40%, at least 50%, at least 60%, at least 70%, or at least 80% relative to the control.
To determine which peptides may be used to inhibit the growth of bacteria in tissue, the minimum inhibitory and bactericidal concentrations of exemplary peptides against both Gram-positive and Gram-negative bacteria were assessed. […]
The antimicrobial effects of the exemplary peptides were assessed in the following bacterial strains: Staphylococcus aureus: USA300, ST80, JE2, and MRSA col; Streptococcus pneumoniae: DCC1335 and D39; Klebsiella pneumoniae ATCC 10031; Pseudomonas aeruginosa ATCC 27853; and Acinetobacter baumannii ATCC 196062. […]

[4] = system: Acinetobacter baumannii ATCC 196062; assay: Diffusion agar plate method, zone of inhibition; format: cell-based; settings: 62.5 μg/ml to 1000 μg/ml; FIG. 5, FIG. 10
Method: (§1) Cell culture: Cultures of each bacterial strain were prepared by inoculating on Muller Hinton Agar (MHA) medium. After overnight incubation at 37° C., the density of the bacterial cells was compared to the McFarland turbidity standard (0.5).
(§2) Plates were swabbed with McFarland 0.5 inoculum of each test bacteria. […] serial dilutions of the peptides were prepared and 20 μl of compound were dropped onto the MHA. Antibiotic disc served as a positive control and vehicle alone served as the negative control. Plates were incubated for 16-18 hours and assessed for antibacterial activity. Zones of inhibition were measured for each TA dilution and compared with the controls.

[5] = system: Pseudomonas aeruginosa ATCC 27853; assay: Diffusion agar plate method, zone of inhibition; format: cell-based; settings: 62.5 μg/ml to 1000 μg/ml; FIG. 5
Method: as §1, §2

[6] = system: Staphylococcus aureus USA300 (NRS384), ST80, JE2, MRSA col; assay: Diffusion agar plate method, zone of inhibition; format: cell-based; settings: 62.5 μg/ml to 1000 μg/ml; FIG. 5
Method: as §1, §2

[7] = system: Acinetobacter baumannii ATCC 196062; assay: Broth microdilution method (MIC50/MIC90); format: cell-based
Method: as §1
(§3) Ten-fold serial dilution of the peptide along with controls were prepared in Mueller Hinton Broth (MHB) media in a total volume of 50 μl in 96 well plates. Additionally, 50 μl of the diluted standard inoculum (1:150 in MHB media) were added to each of the well plates. The plates were read at OD600 nm. MIC50 and MIC90 curves were calculated from the plate readout. Each sample was run in duplicate.

[8] = system: Klebsiella pneumoniae ATCC 10031; assay: Broth microdilution method (MIC50/MIC90); format: cell-based
Method: as §1, §3

[9] = system: Pseudomonas aeruginosa ATCC 27853; assay: Broth microdilution method (MIC50/MIC90); format: cell-based
Method: as §1, §3

[10] = system: Staphylococcus aureus strains, including the MRSA col strain; assay: Broth microdilution method (MIC50/MIC90); format: cell-based
Method: as §1, §3

[11] = system: Acinetobacter baumannii ATCC 196062; assay: Minimum bactericidal concentration (MBC); format: cell-based; settings: agar plates; FIG. 9
Method: (§4) The minimum bactericidal concentration (MBC) test determines the lowest concentration at which an antimicrobial agent will kill a particular microorganism. The MBC is determined using a series of steps, undertaken after a Minimum Inhibitory Concentration (MIC) test has been completed. o determine the MBC, the dilution representing the MIC and at least two of the more concentrated test product dilutions are plated and enumerated to determine viable CFU/ml. The […] of the peptides was determined as the lowest concentration in which colony forming units (CFU) values were <5 colonies/10 μl of culture.

[12] = system: Klebsiella pneumoniae ATCC 10031; assay: Minimum bactericidal concentration (MBC); format: cell-based; settings: agar plates; FIG. 9
Method: as §4

[13] = system: Staphylococcus aureus ST80; assay: Minimum bactericidal concentration (MBC); format: cell-based; settings: agar plates; FIG. 9
Method: as §4

skin after dermabrasion [14] = assay: Clinical study, Visioscan skin smoothness after dermabrasion; format: in vivo, human; settings: 8, 24, 48 and 72 hours after dermabrasion; vehicle cream base
Method: (§5) To determine the effects of exemplary peptides p1-p9 on tissue healing, a clinical study was performed that assessed transepidermal water loss (TEWL) and skin smoothness after dermabrasion.
(§6) This exemplary vehicle cream has a pH of 5.0, no odor and is white in color.
(§7) After 8 hours (T8h) of first product application, the subjects returned to the Institute, acclimated for 15 minutes and new Vapometer® to measure TEWL and Visioscan® VC 20Plus to measure skin smoothness was performed. After 1 (T1d), 2 (T2d) and 3 (T3d) days the subjects returned to the Institute, acclimated for 15 minutes and new measurements were performed. At time-points T1d and T2d new product application was performed by the technician on each test site. A total of 49 study subjects were included in the study and a total of 41 completed the study. The study included post-menopausal female subjects, aged between 50 and 65 years old (mean age: 59 years old), presenting Fitzpatrick Skin Types II-V.
Skin texture images were performed using the Visioscan® VC 20Plus, which allows taking pictures of the skin through magnifying lenses. The images enable a view of the skin topography, texture, dryness, desquamation, blemishes, pores, and cuticles.

skin after dermabrasion [15] = assay: Clinical study, transepidermal water loss (TEWL, Vapometer) after dermabrasion; format: in vivo, human; settings: 8, 24, 48 hours, vehicle cream base
Method: as §5, §6
as §7, with “The study included post-menopausal female subjects, aged between 50 and 65 years old (mean age: 59 years old), presenting Fitzpatrick Skin Types II-V.” left out
The TEWL measurements were performed by using the Vapometer® device through a measurement probe. The readings were taken by applying the probe to the test sites, by resting it against the skin.
The measurements principle is diffusion, which indicates the mass of water per cm^2 that is transported in a given period of time, that is, the reading indicates the degree of water evaporation on the skin surface based on the sensitivity of hygro-sensors. The scale used is g/h/m^2, in which greater values of reading indicate higher evaporation. […]

skin post-dermabrasion = assay: Clinical study, erythema (Chromameter a* value) post-dermabrasion; format: in vivo, human; settings: 4 hours and 12 hours after application
Method: To determine the effects of the peptides on skin redness, the peptides P2, P3, and the combination of P2+P3 were tested at different concentration levels and subject's skin redness (erythema) was measured post-dermabrasion and 2, 4, 8, 12, 24, 48 and 72 hours post-application. The subjects were 30 post-menopausal female subjects, aged 50-65 years or younger, if post-menopausal. Enrolled subjects were to have Fitzpatrick Skin Types II-V. At baseline (post-dermabrasion) and 2, 4, 8, 12, 24, 48 and 72 hours post-application, skin redness was measured on 4 skin sites using the Chromameter® (Konica Minolta, Ramsey NJ). In order to determine any changes in skin redness, the a* value was analyzed. The a* value measures redness/erythema in the skin. A decrease in the a* value corresponded to a whitening/improvement (less red) effect and an increase in the a*value represented a darkening/worsening (redder) effect

[16] = system: Streptococcus pneumoniae DCC1335; assay: Diffusion agar plate method, zone of inhibition; format: cell-based; settings: 62.5 μg/ml to 1000 μg/ml; FIG. 10
Method: as §1, §2

Sequence: FAYCRSKGLRKRLRKFRNK [MBb32]
- Myofibroblast transition (MFT), aSMA/cell, % change relative to control ([1]; 100 ng/ml peptide): −0.2592%
- Myofibroblast transition (MFT), aSMA/cell, % change relative to control ([1]; 1000 ng/ml peptide): −0.3087%
- MFT, Representative value from experiments (% change relative to control) [1]: −0.3087 p = (0.039) %
- Fibroblast induced chemokine production (IL-8) induced by LPS (% change relative to control) ([2]; 100 ug/ml peptide): 4% (p = .054)
- Fibroblast induced chemokine production (IL-8) induced by LPS (% change relative to control) ([2]; 1000 ug/ml peptide): 29% (p = 0.035)
- inhibition of bacterial growth among those peptides tested [3]: strongest effect
- agar zone of inhibition, inhibiting bacterial growth [4]: effective
- agar zone of inhibition, inhibiting bacterial growth [5]: effective
- agar zone of inhibition, inhibiting bacterial growth [6]: effective
- MIC50, growth inhibition of bacteria in broth [7]: lowest MIC50
- MIC50, growth inhibition of bacteria in broth [8]: low MIC50
- MIC50, growth inhibition of bacteria in broth [9]: low MIC50
- MIC50, growth inhibition of bacteria in broth [10]: low MIC50
- minimum bactericidal concentration (MBC), bactericidal effect [11]: bactericidal effect
- minimum bactericidal concentration (MBC), bactericidal effect [12]: bactericidal effect
- minimum bactericidal concentration (MBC), bactericidal effect [13]: bactericidal effect

Sequence: QRLLEAQAAT [Peptide P2]
- skin smoothness (Visioscan) (skin after dermabrasion [14]): visible; also recorded: most promising skin smoothness results
- TEWL, skin barrier restoration (skin after dermabrasion [15]): most promising TEWL assay results; also recorded: most promising results in skin barrier restoration
- skin redness (erythema), a* value (skin post-dermabrasion): significantly improved erythema; also recorded: improve skin redness

Sequence: SKPAKAPE [Peptide P3]
- Myofibroblast transition (MFT), aSMA/cell, % change relative to control ([1]; 1000 ng/ml peptide): −0.4914%
- MFT, Representative value from experiments (% change relative to control) [1]: −0.4914 p = (0.006) %
- aSMA decrease relative to the control (fluorescence, FIG. 3) ([1]; negative control of no peptide): 49%
- skin smoothness (Visioscan) (skin after dermabrasion [14]): visible; also recorded: most promising skin smoothness results
- TEWL, skin barrier restoration (skin after dermabrasion [15]): most promising TEWL assay results; also recorded: most promising results in skin barrier restoration
- skin redness (erythema), a* value (skin post-dermabrasion): significantly improved erythema; also recorded: improve skin redness

Sequence: SLSRTLWAWLPRPCKSN [MBdol20]
- agar zone of inhibition, inhibiting bacterial growth [4]: effective
- agar zone of inhibition, inhibiting bacterial growth [16]: effective
- MIC50 and MIC90, inhibiting bacterial growth in broth ([7]; FIG. 11): most effective
